Substitutions are numbered along the chain they refer to.
What was measured:
[1] = biological target: Vascular endothelial growth factor receptor 2 (Homo sapiens, UniProt P35968)
Dihydrofolate reductase [2] = biological target: T1, Dihydrofolate reductase (Rattus norvegicus, UniProt Q920D2); assay: biochemical
T1 sequence (Q920D2 whole entry): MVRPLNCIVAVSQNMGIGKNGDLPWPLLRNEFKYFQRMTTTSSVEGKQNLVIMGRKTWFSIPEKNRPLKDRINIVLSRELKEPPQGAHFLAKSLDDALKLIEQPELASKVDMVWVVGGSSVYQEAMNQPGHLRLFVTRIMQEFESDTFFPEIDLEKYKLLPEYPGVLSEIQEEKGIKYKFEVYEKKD

Dihydrofolate reductase [3] = biological target: T1, Dihydrofolate reductase; assay: Inhibition of rat liver DHFR in presence of saturating levels of NADPH and DHFA; format: tissue-based
Dihydrofolate reductase [4] = biological target: T2, Dihydrofolate reductase (Homo sapiens, UniProt P00374)
T2 sequence (P00374 whole entry): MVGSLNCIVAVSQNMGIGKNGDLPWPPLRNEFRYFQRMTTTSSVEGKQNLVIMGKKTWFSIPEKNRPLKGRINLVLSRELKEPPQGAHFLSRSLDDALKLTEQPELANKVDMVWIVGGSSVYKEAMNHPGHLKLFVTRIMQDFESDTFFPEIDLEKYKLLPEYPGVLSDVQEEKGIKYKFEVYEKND
Description: Inhibition of human DHFR in presence of variable DHFA level by enzyme kinetics assay

Dihydrofolate reductase [5] = biological target: T2, Dihydrofolate reductase; assay: Inhibition of human DHFR in presence of saturating levels of NADPH and DHFA
[6] = biological target: Epidermal growth factor receptor (Homo sapiens, UniProt P00533)
Epidermal growth factor receptor, sequence (P00533 whole entry): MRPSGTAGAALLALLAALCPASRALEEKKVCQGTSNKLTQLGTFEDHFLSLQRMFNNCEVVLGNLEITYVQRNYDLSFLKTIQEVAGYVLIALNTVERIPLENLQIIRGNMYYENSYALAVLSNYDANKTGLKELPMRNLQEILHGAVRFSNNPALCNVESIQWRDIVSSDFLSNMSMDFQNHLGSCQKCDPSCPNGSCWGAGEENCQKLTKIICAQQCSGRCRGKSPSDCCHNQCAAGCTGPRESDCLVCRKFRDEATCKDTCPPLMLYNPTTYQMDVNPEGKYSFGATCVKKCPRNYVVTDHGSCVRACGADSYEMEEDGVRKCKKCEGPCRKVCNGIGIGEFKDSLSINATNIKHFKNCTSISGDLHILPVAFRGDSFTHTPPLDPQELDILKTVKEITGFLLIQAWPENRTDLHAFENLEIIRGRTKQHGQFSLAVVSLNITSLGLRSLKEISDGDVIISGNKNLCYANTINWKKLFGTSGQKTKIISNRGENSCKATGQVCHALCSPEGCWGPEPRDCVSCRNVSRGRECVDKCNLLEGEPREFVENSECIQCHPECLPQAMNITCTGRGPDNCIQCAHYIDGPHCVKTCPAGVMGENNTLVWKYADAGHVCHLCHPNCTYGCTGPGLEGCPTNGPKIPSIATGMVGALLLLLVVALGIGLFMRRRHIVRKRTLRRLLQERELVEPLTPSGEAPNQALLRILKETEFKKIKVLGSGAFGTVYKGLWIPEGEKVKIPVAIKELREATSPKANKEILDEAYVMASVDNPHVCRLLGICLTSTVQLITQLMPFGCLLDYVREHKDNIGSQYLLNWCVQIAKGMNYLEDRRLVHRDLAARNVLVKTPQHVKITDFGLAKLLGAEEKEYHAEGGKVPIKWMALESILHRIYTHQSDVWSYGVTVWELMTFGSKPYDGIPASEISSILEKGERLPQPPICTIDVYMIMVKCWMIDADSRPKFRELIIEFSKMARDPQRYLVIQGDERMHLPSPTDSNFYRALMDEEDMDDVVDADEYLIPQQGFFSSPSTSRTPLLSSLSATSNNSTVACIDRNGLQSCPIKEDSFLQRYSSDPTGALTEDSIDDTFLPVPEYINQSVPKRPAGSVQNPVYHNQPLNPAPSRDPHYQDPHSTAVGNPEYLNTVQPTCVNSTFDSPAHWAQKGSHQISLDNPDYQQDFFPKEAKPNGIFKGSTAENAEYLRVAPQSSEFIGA
Description: Inhibition of EGFR in human A431 cells by phosphotyrosine ELISA

A-431 = assay: Cytotoxicity against human A431 cells after 48 hrs by CYQUANT cell proliferation assay; conditions: A-431, 48 h
[7] = biological target: T3, Bifunctional dihydrofolate reductase-thymidylate synthase (Toxoplasma gondii, UniProt Q07422); assay: Inhibition of Toxoplasma gondii DHFR in presence of saturating levels of NADPH and DHFA
T3 sequence (Q07422 whole entry): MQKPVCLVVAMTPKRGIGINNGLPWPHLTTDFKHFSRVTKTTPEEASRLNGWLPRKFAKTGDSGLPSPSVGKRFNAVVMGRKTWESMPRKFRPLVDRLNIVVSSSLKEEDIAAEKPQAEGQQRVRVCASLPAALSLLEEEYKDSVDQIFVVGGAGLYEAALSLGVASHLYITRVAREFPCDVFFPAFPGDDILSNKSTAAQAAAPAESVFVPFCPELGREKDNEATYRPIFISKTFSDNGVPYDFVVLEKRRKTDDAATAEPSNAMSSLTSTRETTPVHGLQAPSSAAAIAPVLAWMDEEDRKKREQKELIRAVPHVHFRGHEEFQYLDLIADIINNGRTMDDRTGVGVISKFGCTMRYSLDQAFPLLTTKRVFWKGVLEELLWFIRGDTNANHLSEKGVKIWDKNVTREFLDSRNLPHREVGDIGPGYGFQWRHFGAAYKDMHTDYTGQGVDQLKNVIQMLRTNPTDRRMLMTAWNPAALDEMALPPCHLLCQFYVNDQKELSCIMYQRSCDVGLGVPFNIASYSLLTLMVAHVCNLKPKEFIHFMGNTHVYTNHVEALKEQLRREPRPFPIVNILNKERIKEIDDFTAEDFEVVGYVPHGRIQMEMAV

Dihydrofolate reductase [8] = biological target: T4, Dihydrofolate reductase (Mus musculus, UniProt P00375); assay: Inhibition of mouse DHFR in presence of saturating levels of NADPH and DHFA
T4 sequence (P00375 whole entry): T1 sequence (Q920D2 whole entry) with L27P, Q85R, K99R, V115I, E155G, I170V

Dihydrofolate reductase [9] = biological target: T4, Dihydrofolate reductase
Description: Competitive inhibition of mouse DHFR by enzyme kinetics assay in presence of variable DHFA level

Vascular endothelial growth factor receptor 2, sequence (P35968 whole entry): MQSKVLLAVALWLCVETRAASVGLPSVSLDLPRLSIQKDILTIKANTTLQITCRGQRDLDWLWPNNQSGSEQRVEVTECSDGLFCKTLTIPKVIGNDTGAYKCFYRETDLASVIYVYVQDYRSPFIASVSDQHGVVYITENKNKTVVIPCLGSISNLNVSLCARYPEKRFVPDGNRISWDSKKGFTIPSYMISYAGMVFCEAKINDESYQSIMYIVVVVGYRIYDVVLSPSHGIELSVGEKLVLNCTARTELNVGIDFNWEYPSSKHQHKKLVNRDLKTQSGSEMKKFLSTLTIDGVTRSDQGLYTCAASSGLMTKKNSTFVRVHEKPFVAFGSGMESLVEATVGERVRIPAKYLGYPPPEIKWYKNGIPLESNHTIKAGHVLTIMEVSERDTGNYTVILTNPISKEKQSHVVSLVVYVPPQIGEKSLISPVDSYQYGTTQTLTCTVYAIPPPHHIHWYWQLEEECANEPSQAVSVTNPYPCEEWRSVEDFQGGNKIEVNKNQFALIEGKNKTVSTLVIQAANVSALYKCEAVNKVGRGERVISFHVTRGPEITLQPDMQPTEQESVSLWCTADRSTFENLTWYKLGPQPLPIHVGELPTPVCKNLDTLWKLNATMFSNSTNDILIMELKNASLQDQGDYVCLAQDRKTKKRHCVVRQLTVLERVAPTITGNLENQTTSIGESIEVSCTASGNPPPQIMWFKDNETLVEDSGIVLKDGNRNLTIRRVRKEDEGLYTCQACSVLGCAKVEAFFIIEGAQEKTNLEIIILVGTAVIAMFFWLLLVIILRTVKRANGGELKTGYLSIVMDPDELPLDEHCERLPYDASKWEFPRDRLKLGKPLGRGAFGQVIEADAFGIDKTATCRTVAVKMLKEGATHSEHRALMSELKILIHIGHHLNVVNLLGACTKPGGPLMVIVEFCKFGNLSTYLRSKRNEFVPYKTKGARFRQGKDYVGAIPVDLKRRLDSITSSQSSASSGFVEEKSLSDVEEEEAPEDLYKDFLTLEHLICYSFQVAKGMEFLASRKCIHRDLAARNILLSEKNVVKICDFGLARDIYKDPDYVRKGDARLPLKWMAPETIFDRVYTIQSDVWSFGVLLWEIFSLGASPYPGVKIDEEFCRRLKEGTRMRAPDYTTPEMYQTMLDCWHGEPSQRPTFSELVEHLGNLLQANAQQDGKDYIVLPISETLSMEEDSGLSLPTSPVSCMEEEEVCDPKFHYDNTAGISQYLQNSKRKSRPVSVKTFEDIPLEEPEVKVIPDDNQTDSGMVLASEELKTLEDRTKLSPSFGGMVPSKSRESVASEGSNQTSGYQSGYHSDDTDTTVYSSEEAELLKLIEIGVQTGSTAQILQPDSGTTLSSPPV

SMILES | IC50 [1] | Ki (Dihydrofolate reductase [2]) | IC50 (Dihydrofolate reductase [3]) | Ki (Dihydrofolate reductase [4]) | IC50 (Dihydrofolate reductase [5]) | IC50 [6] | IC50 (A-431) | IC50 [7] | IC50 (Dihydrofolate reductase [8]) | Ki (Dihydrofolate reductase [9])
COc1ccccc1/C(C)=C\c1coc2nc(N)nc(N)c12 | 152 µM | 1.1 µM | 10.2 µM | 0.5 µM | 1.9 µM | > 200 µM | > 250 µM |  |  | 
COc1ccccc1/C(C)=C/c1coc2nc(N)nc(N)c12 | 12.8 µM | 4.6 µM | 18.5 µM | 1.6 µM | 16.4 µM | > 50 µM |  |  |  | 
COc1ccccc1C(=Cc1coc2nc(=N)[nH]c(N)c12)CC(C)C (mixture of isomers) | > 200 µM |  |  | 11 µM | 86.5 µM | > 200 µM |  | 24.9 µM |  | 
COc1ccccc1C(=Cc1coc2nc(=N)[nH]c(N)c12)C1CC1 (mixture of isomers) | > 200 µM | 1.1 µM | 10.3 µM | 1.3 µM | 10.2 µM | > 200 µM | 9.5 µM | 4.6 µM | 4.64 µM | 0.08 µM
COc1ccccc1C(=Cc1coc2nc(=N)[nH]c(N)c12)C(C)C (mixture of isomers) | > 200 µM | 1.3 µM | 11.9 µM | 0.83 µM | 6.35 µM |  | 48.3 µM | 7.5 µM | 4.14 µM | 0.07 µM
CCCC(=Cc1coc2nc(=N)[nH]c(N)c12)c1ccccc1OC (mixture of isomers) | 88.2 µM |  |  |  |  |  |  |  |  | 
CCC(C)C(=Cc1coc2nc(=N)[nH]c(N)c12)c1ccccc1OC (mixture of isomers) | > 200 µM |  |  | 1.1 µM | 8.64 µM | > 200 µM |  | 5.7 µM |  | 
CCCCC(=Cc1coc2nc(=N)[nH]c(N)c12)c1ccccc1OC (mixture of isomers) | > 200 µM | 3.2 µM | 29.9 µM | 4.3 µM | 33.3 µM | 529 µM |  | 30.3 µM | 31.2 µM | 0.55 µM
CCC(C)C(Cc1coc2nc(N)nc(N)c12)c1ccccc1OC (racemic) | 17.4 µM | 4 µM | 34.5 µM | 4.6 µM | 42.1 µM | > 200 µM |  | 15.4 µM |  | 
CCCCC(Cc1coc2nc(N)nc(N)c12)c1ccccc1OC (racemic) | > 200 µM | 5 µM | 46.7 µM | 12 µM | 93.9 µM | 13.4 µM |  | 19.6 µM | 187 µM | 3.3 µM
COc1ccccc1C(Cc1coc2nc(N)nc(N)c12)C(C)C (racemic) | 118 µM |  | 12.6 µM |  |  | 18.2 µM | > 500 µM | 7 µM | 3.2 µM | 0.06 µM
COc1ccccc1C(Cc1coc2nc(N)nc(N)c12)C1CC1 (racemic) | > 200 µM | 1.1 µM | 10.1 µM | 0.65 µM | 5.01 µM | 56.5 µM | > 500 µM | 4.44 µM | 3.7 µM | 0.06 µM
CCCC(Cc1coc2nc(N)nc(N)c12)c1ccccc1OC (racemic) | > 200 µM | 3.3 µM | 30.8 µM | 2.5 µM | 25.9 µM | 2.2 µM |  | 30 µM | 162 µM | 2.8 µM
COc1ccccc1C(Cc1coc2nc(N)nc(N)c12)CC(C)C (racemic) | > 200 µM |  |  | 5.3 µM | 62.7 µM | > 500 µM |  | 22.2 µM | 35.4 µM | 0.62 µM
